According to US6737383B1, “Herbicidal oxadiazolidines” (priority 1999, dated 2004):

What was measured:
velvetleaf = assay: Test B pre/postemergence velvetleaf; type: in vivo, Abutilon theophrasti; details: for Plant response rating, Velvetleaf: scale of 0 to 10 where 0 is no effect and 10 is complete control
How it was run: (§1)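 Herbicidal effect was estimated by eye on a ten-point control scale after plants spent twelve to sixteen days in a greenhouse following soil or foliar treatment. Foliar sprays targeted plants at one to four leaves; all doses were formulated in a non-phytotoxic solvent with surfactant.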

soybean = assay: Test B pre/postemergence soybean; type: in vivo, Glycine max; details: for Plant response rating, Soybean: scale of 0 to 10 where 0 is no effect and 10 is complete control
How it was run: as §1

wheat = assay: Test B pre/postemergence wheat; type: in vivo, Triticum aestivum; details: for Plant response rating, Wheat: scale of 0 to 10 where 0 is no effect and 10 is complete control
How it was run: as §1

crabgrass = assay: Test B pre/postemergence crabgrass; type: in vivo, Digitaria sanguinalis
How it was run: as §1

surinam grass = assay: Test B pre/postemergence surinam grass; type: in vivo, Brachiaria decumbens
How it was run: as §1

duck salad = assay: Test B flood test duck salad; type: in vivo, Heteranthera limosa
How it was run: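 Flood test on plants grown to the 2-leaf stage; treated plants kept in greenhouse twelve to sixteen days, then visually rated against controls on a 0 (no effect) to 10 (complete control) scale.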

bedstraw = assay: Test B pre/postemergence bedstraw; type: in vivo, Galium aparine; details: Postemergence
How it was run: as §1

giant foxtail = assay: Test B pre/postemergence giant foxtail; type: in vivo, Setaria faberii
How it was run: as §1

sugar beet = assay: Test B pre/postemergence sugar beet; type: in vivo, Beta vulgaris; details: for Plant response rating, Sugarbeets: scale of 0 to 10 where 0 is no effect and 10 is complete control
How it was run: as §1

rape = assay: Test B pre/postemergence rape; type: in vivo, Brassica napus; details: for Plant response rating, Rape: scale of 0 to 10 where 0 is no effect and 10 is complete control
How it was run: as §1

morningglory = assay: Test B pre/postemergence morningglory; type: in vivo, Ipomoea hederacea; details: for Plant response rating, Morningglory: scale of 0 to 10 where 0 is no effect and 10 is complete control
How it was run: as §1

purple nutsedge = assay: Test B pre/postemergence purple nutsedge; type: in vivo, Cyperus rotundus; details: for Plant response rating, Nutsedge: scale of 0 to 10 where 0 is no effect and 10 is complete control
How it was run: as §1

corn = assay: Test B pre/postemergence corn; type: in vivo, Zea mays
How it was run: as §1

pigweed = assay: Test B pre/postemergence pigweed; type: in vivo, Amaranthus retroflexus; details: for Plant response rating, Redroot pigweed: scale of 0 to 10 where 0 is no effect and 10 is complete control
How it was run: as §1

cocklebur = assay: Test B pre/postemergence cocklebur; type: in vivo, Xanthium strumarium
How it was run: as §1

[1] = Postemergence, Rate 250 g/ha, scale 0 to 10
[2] = Preemergence, Rate 250 g/ha, scale 0 to 10, 0 is no effect, 10 is complete control
[3] = Preemergence, Rate 500 g/ha, scale 0 to 10, 0 is no effect, 10 is complete control
[4] = Rate 62 g/ha, Postemergence, scale 0 to 10 (0 no effect, 10 complete control)
[5] = Rate 125 g/ha, Postemergence, scale 0 to 10, 0 is no effect, 10 is complete control
[6] = Postemergence, Rate 500 g/ha, scale of 0 to 10 where 0 is no effect and 10 is complete control
[7] = Preemergence, Rate 62 g/ha, scale of 0 to 10 where 0 is no effect and 10 is complete control
[8] = Preemergence, Rate 125 g/ha, scale of 0 to 10 where 0 is no effect and 10 is complete control

## CC(C)N(C(=O)n1oc(=O)n(CCCl)c1=O)c1ccccc1 [Compound 469]
velvetleaf; [1]
  Velvetleaf plant response rating: 0
velvetleaf; Preemergence, Rate 62 g/ha
  Plant response rating, Velvetleaf: 4
velvetleaf; Preemergence, Rate 125 g/ha
  Plant response rating, Velvetleaf: 5
velvetleaf; [2]
  Velvetleaf plant response rating: 6
velvetleaf; [3]
  Velvetleaf plant response rating: 7
velvetleaf; [4]
  Velvetleaf plant response rating: 0
velvetleaf; [5]
  Velvetleaf plant response rating: 0
soybean; [1]
  Soybean plant response rating: 4
soybean; Preemergence, Rate 62 g/ha
  Plant response rating, Soybean: 0
soybean; Preemergence, Rate 125 g/ha
  Plant response rating, Soybean: 0
soybean; [2]
  Soybean plant response rating: 0
soybean; [3]
  Soybean plant response rating: 2
soybean; [4]
  Soybean plant response rating: 0
soybean; [5]
  Soybean plant response rating: 1
wheat; [1]
  Wheat plant response rating: 3
wheat; Preemergence, Rate 62 g/ha
  Plant response rating, Wheat: 0
wheat; Preemergence, Rate 125 g/ha
  Plant response rating, Wheat: 2
wheat; [2]
  Wheat plant response rating: 3
wheat; [3]
  Wheat plant response rating: 6
wheat; [4]
  Wheat plant response rating: 0
wheat; [5]
  Wheat plant response rating: 0
crabgrass; [1]
  Crabgrass plant response rating: 9
crabgrass; [6]
  Crabgrass plant response rating: 9
crabgrass; [7]
  Plant response rating, Crabgrass: 9
crabgrass; [8]
  Plant response rating, Crabgrass: 10
crabgrass; [2]
  Crabgrass plant response rating: 10
crabgrass; [3]
  Crabgrass plant response rating: 10
crabgrass; [4]
  Crabgrass plant response rating: 3
crabgrass; [5]
  Crabgrass plant response rating: 6
Surinam grass; Postemergence, Rate 250 g/ha, scale 0 to 10, 0 no effect, 10 complete control
  B. signalgrass plant response rating: 2
Surinam grass; [6]
  B. signalgrass plant response rating: 6
Surinam grass; [7]
  Plant response rating, B. signalgrass: 3
Surinam grass; [8]
  Plant response rating, B. signalgrass: 7
Surinam grass; [2]
  B. signalgrass plant response rating: 7
Surinam grass; [3]
  B. signalgrass plant response rating: 10
Surinam grass; [4]
  B. signalgrass plant response rating: 0
Surinam grass; [5]
  B. signalgrass plant response rating: 2
Duck salad; Rate 62 g/ha, flood test species, Pre-emergence, visual evaluation after twelve to sixteen days
  Plant response rating, Ducksalad (0 to 10 scale, 0 is no effect, 10 is complete control): 0
Duck salad; Rate 125 g/ha, under heading Pre-emergence, flood test species, visual evaluation after twelve to sixteen days
  Ducksalad plant response rating (0 to 10 scale, 0 is no effect, 10 is complete control): 0
Duck salad; Rate 250 g/ha, Pre-emergence (flood test species), scale 0 to 10, 0 is no effect, 10 is complete control
  Ducksalad plant response rating: 0
Duck salad; Rate 500 g/ha, Pre-emergence, flood test species, scale 0 to 10 (0 no effect, 10 complete control)
  Ducksalad plant response rating: 0
bedstraw; Rate 250 g/ha, scale 0 to 10
  Bedstraw plant response rating: 6
bedstraw; Rate 500 g/ha, scale of 0 to 10 where 0 is no effect and 10 is complete control
  Bedstraw plant response rating: 6
bedstraw; Rate 62 g/ha, scale 0 to 10 (0 no effect, 10 complete control)
  Bedstraw plant response rating: 0
Giant foxtail; [1]
  Giant foxtail plant response rating: 9
Giant foxtail; [6]
  Giant foxtail plant response rating: 9
Giant foxtail; [7]
  Plant response rating, Giant foxtail: 9
Giant foxtail; [8]
  Plant response rating, Giant foxtail: 10
Giant foxtail; [2]
  Giant foxtail plant response rating: 10
Giant foxtail; [3]
  Giant foxtail plant response rating: 10
Giant foxtail; [4]
  Giant foxtail plant response rating: 8
Giant foxtail; [5]
  Giant foxtail plant response rating: 9
Sugar beet; [1]
  Sugarbeets plant response rating: 2
Sugar beet; Preemergence, Rate 62 g/ha
  Plant response rating, Sugarbeets: 6
Sugar beet; Preemergence, Rate 125 g/ha
  Plant response rating, Sugarbeets: 8
Sugar beet; [2]
  Sugarbeets plant response rating: 8
Sugar beet; [3]
  Sugarbeets plant response rating: 10
Sugar beet; [4]
  Sugarbeets plant response rating: 0
Sugar beet; [5]
  Sugarbeets plant response rating: 0
rape; [1]
  Rape plant response rating: 0
rape; Preemergence, Rate 62 g/ha
  Plant response rating, Rape: 0
rape; Preemergence, Rate 125 g/ha
  Plant response rating, Rape: 2
rape; [2]
  Rape plant response rating: 10
rape; [3]
  Rape plant response rating: 10
rape; [4]
  Rape plant response rating: 0
rape; [5]
  Rape plant response rating: 0
morningglory; [1]
  Morningglory plant response rating: 10
morningglory; Preemergence, Rate 62 g/ha
  Plant response rating, Morningglory: 0
morningglory; Preemergence, Rate 125 g/ha
  Plant response rating, Morningglory: 0
morningglory; [2]
  Morningglory plant response rating: 0
morningglory; [3]
  Morningglory plant response rating: 1
morningglory; [4]
  Morningglory plant response rating: 9
morningglory; [5]
  Morningglory plant response rating: 9
Purple nutsedge; [1]
  Nutsedge plant response rating: 0
Purple nutsedge; Preemergence, Rate 62 g/ha
  Plant response rating, Nutsedge: 0
Purple nutsedge; Preemergence, Rate 125 g/ha
  Plant response rating, Nutsedge: 0
Purple nutsedge; [2]
  Nutsedge plant response rating: 0
Purple nutsedge; [4]
  Nutsedge plant response rating: 0
Purple nutsedge; [5]
  Nutsedge plant response rating: 0
corn; [1]
  Corn plant response rating: 2
corn; [6]
  Corn plant response rating: 4
corn; [7]
  Plant response rating, Corn: 0
corn; [8]
  Plant response rating, Corn: 2
corn; [2]
  Corn plant response rating: 8
corn; [3]
  Corn plant response rating: 9
corn; [4]
  Corn plant response rating: 0
corn; [5]
  Corn plant response rating: 0
pigweed; [1]
  Redroot pigweed plant response rating: 2
pigweed; Preemergence, Rate 62 g/ha
  Plant response rating, Redroot pigweed: 5
pigweed; Preemergence, Rate 125 g/ha
  Plant response rating, Redroot pigweed: 10
pigweed; [2]
  Redroot pigweed plant response rating: 10
pigweed; [3]
  Redroot pigweed plant response rating: 10
pigweed; [4]
  Redroot pigweed plant response rating: 0
pigweed; [5]
  Redroot pigweed plant response rating: 0
cocklebur; [1]
  Cocklebur plant response rating: 0
cocklebur; [6]
  Cocklebur plant response rating: 3
cocklebur; [7]
  Plant response rating, Cocklebur: 0
cocklebur; [8]
  Plant response rating, Cocklebur: 0
cocklebur; [2]
  Cocklebur plant response rating: 0
cocklebur; [3]
  Cocklebur plant response rating: 0
cocklebur; [4]
  Cocklebur plant response rating: 0
cocklebur; [5]
  Cocklebur plant response rating: 0
